# Source: patent publication US20030003579A1, “Dendritic cells; methods” (priority 2000, published 2003)
# Legend:
# [1] = tested on: pre-DC2; experiment: Viability of pre-DC2 by propidium iodide staining and flow cytometry; type: cell-based, human; settings: 24 h culture
# Experimental: (§1) Underlines indicate palindromic sequences. ODNs 1668, 2117, and 2006 are phosphorothioate forms, and ACC-30, AAC-30, and GAC-30 are phosphodiester forms. The phosphorothioate ODNs were added at 0 h at 0.1 μM or 1 μM, and the phosphodiester ODNs were added at 0, 4, and 16 h, 5 μM at each time point, to compensate for their degradation by deoxyribonuclease activity in media.
# (§2) Monocytes, CD11c^+ DC, and pre-DC2 were isolated from human peripheral blood. See Grouard, et al. (1997) J. Exp'l Med. 185:1101-1111; and Kadowaki, et al. (2000) J. Exp'l Med. 192:219-226. The cells were cultured for 24 h in RPMI1640 containing 10% FCS at 2×10^4/200 μl in round-bottom 96-well culture plates in the presence of ODNs or 50 μg/ml poly I:C (Sigma). Adult dermal fibroblasts (Clonetics) were maintained as recommended by the company, and were stimulated with 50 μg/ml poly I:C for 24 h at 7.5×10^4/ml in 12-well culture plates.
# IV. Analysis of viability of pre-DC2 stimulated with ODNs or poly I:C Pre-DC2 cultured for 24 h without stimulation or with ODNs or poly I:C were stained with propidium iodide, and were analyzed with a FACScan® flow cytometer (Becton Dickinson). After cell debris was excluded by an appropriate forward scatter threshold, the percentages of propidium iodide-negative cells were calculated.
# Pre-DC2 were cultured for 24 h without stimulation, with the indicated ODNs, or with 50 μg/ml poly I:C. ACC-30, AAC-30, and GAC-30 were added at 5 μM. After cell debris was excluded by an appropriate forward scatter threshold, the percentages of propidium iodide-negative cells were measured by flow cytometry
# [2] = tested on: pre-DC2; experiment: Cytokine production by pre-DC2, ELISA of supernatants; type: cell-based, human; settings: 24 h
# Experimental: as §1, §2
# (§3) An IFN-α ELISA kit, an IL-12 ELISA kit (Biosource International), and an IFN-β ELISA kit (FUJIREBIO) were used to analyze cytokine production.
# (§4) It was examined whether CpG ODNs and poly I:C induce pre-DC2 to produce IFN-α. Cells were stimulated with various CpG ODNs (2117, 2006, 1668: 1 μM, ACC-30, AAC-30, GAC-30: 5 μM) for 24 h, and the concentrations of IFN-α in the supernatants were measured by ELISA. Typically, cytokine is accumulated from cultures of about 2×10^4 cells in 200 μl cultured for 24 h. […] In contrast, AAC-30 and GAC-30 induced pre-DC2 to produce large amounts of IFN-α (AAC-30 508-1806 pg/ml, GAC-30 931-1362 pg/ml). ACC-30 induced pre-DC2 to produce much smaller amounts of IFN-α (18-161 pg/ml). None of the CpG ODNs used here induced CD11c^+ DC and monocytes to produce detectable levels of IFN-α.
# [3] = tested on: monocytes; experiment: Cytokine production by monocytes, ELISA of supernatants; type: cell-based, human; settings: 24 h; for IFN-α production by monocytes: CpG ODNs (2117, 2006, 1668: 1 μM; ACC-30, AAC-30, GAC-30: 5 μM)
# Experimental: as §1, §2, §3, §4
# [4] = tested on: CD11c^+ DC; experiment: Cytokine production by CD11c+ DC, ELISA of supernatants; type: cell-based, human; settings: 24 h
# Experimental: as §1, §2, §3, §4
# [5] = tested on: pre-DC2; experiment: Flow cytometric analysis of CD80 and CD86 expression on pre-DC2; type: cell-based, human; settings: for expression of CD80 and CD86 on pre-DC2: 5 μM phosphodiester ODN, 24 h
# Experimental: as §1, §2
# (§5) Freshly isolated pre-DC2 and pre-DC2 stimulated with ODNs for 24 h were stained with PE-conjugated anti-CD80 (L307.4, Becton Dickinson), PE-conjugated anti-CD86 (2331, Pharmingen), or an isotype control antibody. CD11c^+ DC cultured for 24 h without stimulation or with poly I:C were stained with FITC-conjugated anti-CD80 (L307.4), FITC-conjugated anti-CD86 (2331), or an isotype control antibody. The cells were analyzed with a FACScan® flow cytometer. Dead cells were excluded by staining with propidium iodide.
# Freshly isolated pre-DC2 and pre-DC2 cultured with the CpG ODNs for 24 h were stained with PE-conjugated anti-CD80 or anti-CD86 mAbs. The upregulation of CD80 and CD86 expression on pre-DC2 is a hallmark of their differentiation into DC. Grouard, et al. (1997) J. Exp'l Med. 185:1101-1111; and Kadowaki, et al. (2000) J. Exp'l Med. 192:219-226.
# [6] = tested on: Adult dermal fibroblasts; experiment: IFN-β production by poly I:C stimulated fibroblasts, ELISA; type: cell-based; settings: 50 μg/ml poly I:C, 24 h, 7.5×10^4/ml
# Experimental: as §2, §3
# [7] = tested on: CD11c^+ DC; experiment: Flow cytometric analysis of CD80 and CD86 expression on CD11c+ DC; type: cell-based, human; settings: 50 μg/ml poly I:C, 24 h culture
# Experimental: as §2, §5
# CD11c^+ DC cultured for 24 h without stimulation or with 50 μg/ml poly I:C were stained with FITC-conjugated anti-CD80 or anti-CD86 mAbs. […] Cella, et al. (1999) J. Exp'l Med. 189:821-829; and Verdijk, et al. (1999) J. Immunol. 163:57-61. […]
# [8] = 5 μM phosphodiester ODN added at 0, 4 and 16 h
# [9] = CpG ODNs (2117, 2006, 1668: 1 μM; ACC-30, AAC-30, GAC-30: 5 μM)
# [10] = 5 μM ODN, about 2×10^4 cells in 200 μl
Substance,IFN-α production by monocytes [3],"survival of pre-DC2 (propidium iodide-negative cells) [1, 8]","IFN-α production by CD11c+ DC [4, 9]","IFN-α production by pre-DC2 [2, 10] [pg/mL]",expression of CD80 and CD86 on pre-DC2 [5],further results
"1668: CpG oligodeoxynucleotide TCCATGACGTTCCTGATGCT (DNA, all phosphorothioate, methylation of C not given here) [compound 1668]",,,,,,"survival of pre-DC2 (propidium iodide-negative cells) ([1]; 1 μM phosphorothioate ODN): did not maintain the survival of pre-DC2; IFN-α production by pre-DC2 ([2]; 1 μM ODN, about 2×10^4 cells in 200 μl): did not induce pre-DC2 to produce detectable levels of IFN-α"
"AAC-30: palindromic CpG oligodeoxynucleotide ACCGATAACGTTGCCGGTGACGGCACCACG (DNA, all phosphodiester, methylation of C not given here)",did not produce detectable levels of IFN-α,maintained the survival of pre-DC2,did not produce detectable levels of IFN-α,508 to 1806,"upregulated CD80 and CD86, albeit to a lesser extent than 2006 and 2117",
"ACC-30: oligodeoxynucleotide ACCGATACCGGTGCCGGTGACGGCACCACG (DNA, all phosphodiester, methylation of C not given here)",,less efficient,,18 to 161,,
"GAC-30: palindromic CpG oligodeoxynucleotide ACCGATGACGTCGCCGGTGACGGCACCACG (DNA, all phosphodiester, methylation of C not given here)",did not produce detectable levels of IFN-α,maintained the survival of pre-DC2,did not produce detectable levels of IFN-α,931 to 1362,"upregulated CD80 and CD86, albeit to a lesser extent than 2006 and 2117",
polyinosinic polycytidylic acid [poly I:C],,,,,,IFN-β production by monocytes ([3]; 50 μg/ml poly I:C): but not pre-DC2 or monocytes; survival of pre-DC2 (propidium iodide-negative cells) ([1]; 50 μg/ml poly I:C): did not maintain the survival of pre-DC2; IFN-β production by fibroblasts [6]: 28.6 to 48.5 pg/mL; expression of CD80 and CD86 on CD11c+ DC [7]: strongly upregulated; IFN-α production by CD11c+ DC ([4]; 50 μg/ml poly I:C): 24.1 to 97.9 pg/mL; IFN-β production by CD11c+ DC ([4]; 50 μg/ml poly I:C): 33.6 to 166.5 pg/mL; IL-12 production by CD11c+ DC ([4]; 50 μg/ml poly I:C): 17.7 to 137.7 pg/mL; IFN-α production by pre-DC2 ([2]; 50 μg/ml poly I:C): did not induce pre-DC2 to produce a detectable level of IFN-α; differentiation of pre-DC2 into DC ([5]; poly I:C): does not stimulate pre-DC2 to survive and to differentiate into DC
